Assay results reported in patent US20030013640A1, “Integrin linked kinase modulation of leukocyte trafficking” (priority 2001, published 2003).

Assays:
[1] = tested on: neutrophils (PMN); details: mouse, in vivo; cited from earlier work
[2] = tested on: neutrophils (PMN); assay: Zymosan-induced PMN accumulation in mouse peritoneal cavity; type: in vivo
Description: (§1) Zymosan (an insoluble inflammogen derived from the yeast wall, Ajuebor et al. (1998) J. Leukoc. Biol. 63, 108-116) is injected i.p. in mice, control animals receive only sterile saline. Cellular influx into the peritoneal cavities is evaluated either at the 4 h time-point (for PMN) or at 24 h (for monocytes), by killing animals by CO2 exposure, and washing the cavities with 3 ml of sterile PBS supplemented with 3 mM EDTA and 25 U/ml heparin. Cells in the lavage fluids are stained in Turk's solution and differential counting is performed with a light microscope.
PMN influx ranges between 15-20 million cells per mouse, and is sensitive to anti-chemokine (i.e. antibodies to MCP-1) and anti-adhesion reagents (i.e. antibody to CD11b) as well as to more classical anti-inflammatory drugs, e.g. PAF antagonists; indomethacin, 5-lipoxygenase inhibitors, etc. The positive control is dexamethasone, which reduces zymosan-induced PMN influx with an approximate ED50 of 0.9 mg/kg s.c. (given 2 h prior to zymosan). The effects of ILK inhibitors are determined in groups pre-treated with various concentrations of ILK inhibitors, usually in systemic administration doses in the range of 10-300 mg/kg, and usually administered every 1-4 hours prior to the cytokine, and up to the time of euthanasia, (dependent on pharmacokinetics of specific ILK inhibitor).

[3] = tested on: monocytes; assay: Zymosan-induced monocyte accumulation in peritoneal cavity (24 h); type: in vivo; details: Mus musculus, sc, given 2 h prior to zymosan, 24 h time-point
Description: as §1
Monocyte accumulation at the 24 h time-point is in the order of 10-14 million cells per animal. The effect of known drugs on this parameter have not been well investigated, however it is sensitive to anti-chemokine therapy (i.e. antibodies to MCP-1) and to dexamethasone. The latter is the positive control with an approximate ED50 of 0.9 mg/kg s.c. (given 2 h prior to zymosan). The effects of ILK inhibitors are determined in groups pre-treated with various concentrations of ILK inhibitors, usually in systemic administration doses in the range of 10-300 mg/kg, and usually administered every 1-4 hours prior to the cytokine, and up to the 2 hours after (timing dependent on pharmacokinetics of specific ILK inhibitor).

[4] = tested on: neutrophils (PMN); assay: IL-1β-induced neutrophil accumulation in mouse dorsal air-pouch; type: in vivo; details: sc, given 2 h prior, 4 h, read-out: ED50 for inhibition of IL-1β-induced PMN migration
Description: Acute accumulation of neutrophils (PMN) into a specific tissue site is a hallmark of the inflammatory response, and can be reproduced in vivo in the mouse following IL-1β injection into a preformed s.c. dorsal air-pouch. This model has the advantage of a quick (maximal at 4 h) and intense (between 5 and 8 million PMN per animal) response (Perretti & Flower (1993) J. Immunol. 150:992-999).
Six-day-old air-pouches are formed on the back of mice by injection of 2.5 ml of air on day 0 and day 3. On day 6, 5 ng of murine recombinant IL-1β is injected into the air-pouch, or vehicle only, i.e. 0.5% carboxymethylcellulose in PBS. Cellular influx into the air-pouches is evaluated at the 4 h time-point, by killing animals by CO2 exposure, and washing the cavities with 2 ml of sterile PBS supplemented with 3 mM EDTA and 25 U/ml heparin. Cells in the lavage fluids are stained in Turk's solution and differential counting is done with a light microscope.
This model is not sensitive to indomethacin and BWA4C, but is sensitive to PAF antagonists, anti-adhesion molecule reagents, tachykinin NK1 antagonists, etc. The effects of ILK inhibitors are determined in groups pre-treated with various concentrations of ILK inhibitors in systemic administration doses in the range of 10-300 mg/kg, administered every 1-4 hours prior to the cytokine, and up to the time of euthanasia.

[5] = tested on: monocytes; assay: MCP-1-induced monocyte accumulation in peritoneal cavity; type: in vivo; details: sc, 0.1 mg/kg per mouse s.c. 1 h prior to MCP-1
Description: Monocyte chemoattractant protein-1 (MCP-1) given i.p. (1 μg) induces a selective accumulation of monocytes which is maximal at the 6 h post-injection (between 1-3 million monocytes per mouse), above the mild effect of the vehicle (0.25 ml of sterile saline) alone. After MCP-1 injection, animals are killed by CO2 exposure, and cavities washed with 3 ml of sterile PBS supplemented with 3 mM EDTA. Cells in the lavage fluids are stained in Turk's solution and differential counting is performed using a light microscope by a scientist unaware of the experimental groups. Monocyte influx is also confirmed by staining with F4/80 and FACS analysis. The effects of ILK inhibitors are determined in groups pre-treated with various concentrations of ILK inhibitor in systemic administration doses in the range of 10-300 mg/kg, administered every 1-4 hours prior to the cytokine, and up to the time of euthanasia (timing dependent on pharmacokinetics of specific ILK inhibitor). […] The positive control is dexamethasone which produces approximately 50% inhibition at the dose of 0.1 mg/kg per mouse given s.c. 1 h prior to MCP-1.

[6] = tested on: leukocyte-endothelium interaction; assay: Intravital microscopy of IL-1β-inflamed mouse mesenteric vascular bed; type: in vivo; details: 0.5 mg/kg s.c. 1 hour prior to IL-1β
Description: Mice are injected i.p. with 20 ng mouse recombinant IL-1β and left at liberty until the beginning of the experiment. Control animals receive sterile saline alone (1 ml per rat i.p.). Animals are anaesthetised with Inactin™, shaved on the neck and abdominal areas, and a tracheotomy is performed to facilitate breathing during the experimentation. Cautery incisions are made along the abdominal line, the mesentery is exposed and placed on a viewing plexiglass stage.
The preparation is mounted on a Zeiss Axioskop and is then transilluminated with a 12-V, 100-W halogen light source. […] A video time-date generator projects the time, date and stopwatch function onto the monitor.
Particular care is taken to assure observation of the mesenteric vascular bed exactly 2 h after injection of the cytokine. Mesenteries are superfused with thermostated (37° C.) bicarbonate-buffered solution (pH=7.4, gassed with 5% CO2/95% N2) at a rate of 2 ml/min. Three to five randomly selected post-capillary venules (diameter between 20-40 μm; length of at least 100 μm) are observed for each rat. Off-line analysis is performed to quantify the extent of cell adhesion (the number of adherent leukocytes in 100 μm length vessel wall), and leukocyte emigration (the number of cells that had emigrated out of the vessel up to 50 μm, 50 to 100 μm and 100-150 μm away from the vessel wall in parallel with 100 μm vessel segments).
IL-1β produces an intense response (>20 adherent cells per 100 μm length) that is modulated in part by endogenous PAF, ICAM-1 and the chemokine CINC. Therefore, agents that interfere with these mediators are identified using this technique. The effects of ILK inhibitors are determined in groups pre-treated with various concentrations of ILK inhibitors, in systemic administration doses in the range of 10-300 mg/kg, and administered every 1-4 hours prior to the cytokine, and up to the 2 hours after (timing dependent on pharmacokinetics of specific ILK inhibitor). Pre-treatment with ILK inhibitors is expected to result in a significant decrease in the number of leucocytes that are recruited.
Mouse mesenteric vascular bed was inflamed with interleukin-1β. The anti-inflammatory properties of KP-401-A (an ILK inhibitor) were compared to dexamethasone (positive control) as determined by intravital microscopy. […]
Cell rolling was measured by white blood cell velocity. Cell adhesion was quantified by counting, for each vessel, the number of adherent neutrophils in a 100 μm length. Leukocyte emigration from the microcirculation into the tissue was quantified by counting the number of cells that had emigrated up to 50 μm away from the wall of the 100 μm vessel segments. […]

[7] = tested on: neutrophils (PMN); details: classical anti-inflammatory drugs; cited from earlier work

Row | SMILES | sensitivity of IL-1β air-pouch model to the drug [1] | ED50 ([2]; Mus musculus, Neutrophil, sc, given 2 h prior to zymosan, 4 h time-point, read-out: ED50 for reduction of zymosan-induced PMN influx) [mg/kg] | PMN Accumulation (× 10^6 cells) ± SE ([2]; dose 1.5 mg/kg s.c., 60 min prior to and 60 min following i.p. Zymosan 1 mg/mouse, measured 4 h later, mean ± SE, n = 5) | ED50 [3] [mg/kg] | ED50 [4] [mg/kg] | inhibition at 0.1 mg/kg [5] [%] | Adherent Cells (no. 100 μm) ([6]; 2 hours after IL-1β) | Emigrated Cells (no. 50 × 100 μm^2) ([6]; 2 hours after IL-1β) | Cell Flux (no. per min) ([6]; observed 2 hours after IL-1β) | Cell Rolling (VWBC) ([6]; white blood cell velocity, 2 hours after IL-1β) | sensitivity of zymosan-induced PMN influx to the drug [7]
1 | CC(=O)N(O)C/C=C/c1cccc(Oc2ccccc2)c1 [BWA4C] | not sensitive | – | – | – | – | – | – | – | – | – | –
2 | C[C@@H]1C[C@H]2[C@@H]3CCC4=CC(=O)C=C[C@]4(C)[C@@]3(F)[C@@H](O)C[C@]2(C)[C@@]1(O)C(=O)CO [dexamethasone] | – | ~0.9 | 4.0 ± 0.79 × 10^6 cells | ~0.9 | ~0.15 | ~50 | 1.4 ± 0.1 | 1.8 ± 0.3 | 7.0 ± 1.5 | 17 ± 2.5 | –
3 | COc1ccc2c(c1)c(CC(=O)O)c(C)n2C(=O)c1ccc(Cl)cc1 [indomethacin] | not sensitive | – | – | – | – | – | – | – | – | – | sensitive
